Measured values taken from ChEMBL document CHEMBL4715763, “A simple, one pot synthesis of furo[3,2-c]chromenes and evaluation of antimicrobial activity” (2016).
In brackets after ≈: the same amount, converted by molar mass. Activity calls are given as the source filed them. The rule behind the calls is not given here.

Key:
Type in all cases: functional
[1] = system: Staphylococcus aureus; assay: Antimicrobial activity against Staphylococcus aureus MTCC 96 assessed as inhibition zone measured after 24 hrs incubation by well diffusion method
[2] = system: Bacillus subtilis; assay: Antimicrobial activity against Bacillus subtilis MTCC 121 assessed as inhibition zone measured after 24 hrs incubation by well diffusion method
[3] = system: Staphylococcus aureus; assay: Antimicrobial activity against Staphylococcus aureus MLS-16 MTCC 2940 assessed as inhibition zone measured after 24 hrs incubation by well diffusion method
[4] = system: Pseudomonas aeruginosa; assay: Antimicrobial activity against Pseudomonas aeruginosa MTCC 2453 assessed as inhibition zone measured after 24 hrs incubation by well diffusion method
[5] = system: Candida albicans; assay: Antimicrobial activity against Candida albicans MTCC 3017 assessed as inhibition zone measured after 24 hrs incubation by well diffusion method
[6] = system: Micrococcus luteus; assay: Antimicrobial activity against Micrococcus luteus MTCC 2470 assessed as inhibition zone measured after 24 hrs incubation by well diffusion method
[7] = system: Raoultella planticola; assay: Antimicrobial activity against Klebsiella planticola MTCC 530 assessed as inhibition zone measured after 24 hrs incubation by well diffusion method
[8] = system: Escherichia coli; assay: Antimicrobial activity against Escherichia coli MTCC 739 assessed as inhibition zone measured after 24 hrs incubation by well diffusion method

SMILES	MIC [1]	MIC [2]	MIC [3]	MIC [4]	MIC [5] [µg/mL]	MIC [6]	MIC [7]	MIC [8]
COC(=O)C1(C#N)Oc2c(c(=O)oc3ccccc23)C1c1ccc(C(F)(F)F)cc1 (stereo not given)	> 250 µg/mL	> 250 µg/mL	> 250 µg/mL	> 250 µg/mL	> 250	> 250 µg/mL	> 250 µg/mL	> 250 µg/mL
COC(=O)C1(C#N)Oc2c(c(=O)oc3ccccc23)C1c1ccc(O)cc1 (stereo not given)	> 250 µg/mL	> 250 µg/mL	> 250 µg/mL	> 250 µg/mL	> 250	> 250 µg/mL	> 250 µg/mL	> 250 µg/mL
COC(=O)C1(C#N)Oc2c(c(=O)oc3ccccc23)C1c1ccc(Cl)cc1 (stereo not given)	> 250 µg/mL	> 250 µg/mL	> 250 µg/mL	> 250 µg/mL	> 250	> 250 µg/mL	> 250 µg/mL	62.5 µg/mL (≈ 164 µM)
CCOC(=O)C1(C#N)Oc2c(c(=O)oc3ccccc23)C1c1cccc2ccccc12 (stereo not given)	> 250 µg/mL	> 250 µg/mL	> 250 µg/mL	> 250 µg/mL	> 250	> 250 µg/mL	> 250 µg/mL	> 250 µg/mL
Clc1ccc(COC(Cn2ccnc2)c2ccc(Cl)cc2Cl)c(Cl)c1 (stereo not given) [MICONAZOLE]	inactive	inactive	inactive	inactive	7.8 (≈ 18.7 µM)	inactive	inactive	inactive
CCOC(=O)C1(C#N)Oc2c(c(=O)oc3ccccc23)C1c1ccccc1 (stereo not given)	> 250 µg/mL	> 250 µg/mL	> 250 µg/mL	> 250 µg/mL	> 250	> 250 µg/mL	> 250 µg/mL	> 250 µg/mL
CCOC(=O)C1(C#N)Oc2c(c(=O)oc3ccccc23)C1c1ccc([N+](=O)[O-])cc1 (stereo not given)	> 250 µg/mL	> 250 µg/mL	> 250 µg/mL	> 250 µg/mL	> 250	> 250 µg/mL	> 250 µg/mL	> 250 µg/mL
COC(=O)C1(C#N)Oc2c(c(=O)oc3ccccc23)C1c1ccccc1 (stereo not given)	> 250 µg/mL	62.5 µg/mL (≈ 180 µM)	> 250 µg/mL	> 250 µg/mL	> 250	> 250 µg/mL	> 250 µg/mL	> 250 µg/mL
COC(=O)C1(C#N)Oc2c(c(=O)oc3ccccc23)C1c1ccc(C#N)cc1 (stereo not given)	> 250 µg/mL	> 250 µg/mL	> 250 µg/mL	> 250 µg/mL	> 250	> 250 µg/mL	> 250 µg/mL	> 250 µg/mL
COC(=O)C1(C#N)Oc2c(c(=O)oc3ccccc23)C1c1ccc(Cl)cc1Cl (stereo not given)	> 250 µg/mL	> 250 µg/mL	> 250 µg/mL	> 250 µg/mL	> 250	> 250 µg/mL	> 250 µg/mL	> 250 µg/mL
